We go through 23 molecules from US20250179059A1 (The Regents of the University of California, priority 2021, published 2025).

Experiment [1] concerns human SKM-1 acute myeloid leukemia cells. Nature of the experiment: SKM-1 antiproliferation cell-based assay (ATPlite). Conditions: Homo sapiens, SKM-1, 96 h, SKM-1 antiproliferation assay, 4 days, Table C2. In outline:
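Log-phase cells in RPMI 1640/15% FBS were seeded at 34722 cells/mL and exposed for 4 days to nine-concentration DMSO serial dilutions in triplicate. Viability was read as ATP luminescence (ATPlite 1step), and IC50 values came from variable-slope non-linear regression.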

Experiment [2] concerns the target T1, human BRD4 bromodomain II (Homo sapiens, UniProt O60885).
T1 construct: human BRD4 bromodomain II [based on Genbank NM_058243, residues 349-460]; host or cells: E. coli
Nature of the experiment: Bromodomain binding assay (AlphaScreen), BRD4 BDII. The conditions noted are these: AlphaScreen assay, Table C2; read-out: BRD4 BDII IC50. The procedure, abridged:
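Compounds (10-point, 3-fold series) were preincubated 30 min at room temperature with E. coli-expressed N-terminal His6-tagged BRD4 BDII (residues 349-460) or BDI (residues 44-170) in 50 mM HEPES pH 7.5, 100 mM NaCl, 0.05% CHAPS, 0.1% BSA, 1% DMSO. Displacement of biotinylated tetra-acetylated H4 1-21 peptide was read by AlphaScreen; IC50 from curve fitting.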

pIC50: −log10 of the molar value.

In the case of `Cn1ccn(-c2ccc(-c3cc(F)cc(-c4cc(N5CC6CCC(C5)N6)c5cnn(C)c5c4)c3O)cc2Cl)c1=O` [Example 607, 1-(3′-(4-(3,8-diazabicyclo[3.2.1]octan-3-yl)-1-methyl-1H-indazol-6-yl)-3-chloro-5′-fluoro-2′-hydroxy-[1,1′-biphenyl]-4-yl)-3-methyl-1H-imidazol-2(3H)-one], the GI50 in experiment [1] was 0.3 to 30 nM. The pIC50 in experiment [2] is 9.00 to 11.00.

Molecule `Cc1ccc(S(=O)(=O)n2ccc3c(N4CCN[C@H](C)C4)cc(-c4cc(F)cc(-c5ccc(-n6ccn(C)c6=O)c(Cl)c5)c4O)cc32)cc1` [Example 608, (R)-1-(3-chloro-5′-fluoro-2′-hydroxy-3′-(4-(3-methylpiperazin-1-yl)-1-tosyl-1H-indol-6-yl)-[1,1′-biphenyl]-4-yl)-3-methyl-1H-imidazol-2(3H)-one] gave a 50% growth inhibitory concentration (GI50) in experiment [1] of 30 to 300 nM. Besides, the negative logarithm of the IC50 (pIC50) in experiment [2] was 7.00 to 8.00.

On to `Cn1ccn(-c2ccc(-c3cc(F)cc(-c4cc(N5CCN6CCCCC6C5)c5cnn(C)c5c4)c3O)cc2Cl)c1=O` (stereo not shown) [Example 609, 1-(3-chloro-5′-fluoro-3′-(4-(hexahydro-1H-pyrido[1,2-a]pyrazin-2(6H)-yl)-1-methyl-1H-indazol-6-yl)-2′-hydroxy-[1,1′-biphenyl]-4-yl)-3-methyl-1H-imidazol-2(3H)-one], for which the GI50 in experiment [1] was in the range of 0.3 to 30 nM. The pIC50 in experiment [2] was 9.00 to 11.00.

`Cn1ccn(-c2ccc(-c3cc(F)cc(-c4ccnc(N5CCN(C[C@@H](O)CO)CC5)c4)c3O)cc2Cl)c1=O` [Example 610, (R)-1-(3-chloro-3′-(2-(4-(2,3-dihydroxypropyl)piperazin-1-yl)pyridin-4-yl)-5′-fluoro-2′-hydroxy-[1,1′-biphenyl]-4-yl)-3-methyl-1H-imidazol-2(3H)-one]: in experiment [1], the GI50 was 0.3 to 30 nM. Besides, the pIC50 in experiment [2] was 9.00 to 11.00.

In experiment [1], `Cn1ccn(-c2ccc(-c3cc(F)cc(-c4ccnc(N5CCN(CC6COC6)CC5)c4)c3O)cc2Cl)c1=O` [Example 611, 1-(3-chloro-5′-fluoro-2′-hydroxy-3′-(2-(4-(oxetan-3-ylmethyl)piperazin-1-yl)pyridin-4-yl)-[1,1′-biphenyl]-4-yl)-3-methyl-1H-imidazol-2(3H)-one] registered a concentration for 50% growth inhibition (GI50) of 0.3 to 30 nM. Besides, the negative logarithm of the IC50 (pIC50) in experiment [2] was 9.00 to 11.00.

As to `Cn1ccn(-c2ccc(-c3cc(F)cc(-c4ccnc(N5CCCCC5)c4)c3O)cc2Cl)c1=O` [Example 612, 1-(3-chloro-5′-fluoro-2′-hydroxy-3′-(2-(piperidin-1-yl)pyridin-4-yl)-[1,1′-biphenyl]-4-yl)-3-methyl-1H-imidazol-2(3H)-one], the GI50 in experiment [1] fell in the range of 300 to 3000 nM. In addition, the pIC50 in experiment [2] is 8.00 to 9.00.

`Cn1ccn(-c2ccc(-c3cc(F)cc(-c4ccnc(N5CCCC5)c4)c3O)cc2Cl)c1=O` [Example 613, 1-(3-chloro-5′-fluoro-2′-hydroxy-3′-(2-(pyrrolidin-1-yl)pyridin-4-yl)-[1,1′-biphenyl]-4-yl)-3-methyl-1H-imidazol-2(3H)-one] had a 50% growth inhibitory concentration (GI50) in experiment [1] of 30 to 300 nM. Moreover, the negative logarithm of the IC50 (pIC50) in experiment [2] was 8.00 to 9.00.

Molecule `Cn1ccn(-c2ccc(-c3cc(F)cc(-c4ccnc(N5CCN(C(C)(C)C)CC5)c4)c3O)cc2Cl)c1=O` [Example 614, 1-(3′-(2-(4-(tert-butyl)piperazin-1-yl)pyridin-4-yl)-3-chloro-5′-fluoro-2′-hydroxy-[1,1′-biphenyl]-4-yl)-3-methyl-1H-imidazol-2(3H)-one] showed a GI50 in experiment [1] of 0.3 to 30 nM. Besides, the negative-log IC50 (pIC50) in experiment [2] was 9.00 to 11.00.

For `Cn1ccn(-c2ccc(-c3cc(F)cc(-c4ccnc(N5CCOCC5)c4)c3O)cc2Cl)c1=O` [Example 615, 1-(3-chloro-5′-fluoro-2′-hydroxy-3′-(2-morpholinopyridin-4-yl)-[1,1′-biphenyl]-4-yl)-3-methyl-1H-imidazol-2(3H)-one], in experiment [1], the GI50 fell in the range of 30 to 300 nM. Besides, in experiment [2], the pIC50 is 8.00 to 9.00.

Turning to `Cn1ccn(-c2ccc(-c3cc(F)cc(-c4ccnc(N5CCN(CCN)CC5)c4)c3O)cc2Cl)c1=O` [Example 616, 1-(3′-(2-(4-(2-aminoethyl)piperazin-1-yl)pyridin-4-yl)-3-chloro-5′-fluoro-2′-hydroxy-[1,1′-biphenyl]-4-yl)-3-methyl-1H-imidazol-2(3H)-one], in experiment [1], the GI50 lay in the range of 0.3 to 30 nM. For the same molecule, the pIC50 in experiment [2] is 9.00 to 11.00.

The molecule `Cn1ccn(-c2ccc(-c3cc(F)cc(-c4ccnc(N5CCN(CCCO)CC5)c4)c3O)cc2Cl)c1=O` [Example 617, 1-(3-chloro-5′-fluoro-2′-hydroxy-3′-(2-(4-(3-hydroxypropyl)piperazin-1-yl)pyridin-4-yl)-[1,1′-biphenyl]-4-yl)-3-methyl-1H-imrdazol-2(3H)-one] showed a GI50 in experiment [1] of 0.3 to 30 nM. For the same molecule, the negative logarithm of the IC50 (pIC50) in experiment [2] was 9.00 to 11.00.

In turn, `Cn1ccn(-c2ccc(-c3cc(F)cc(-c4ccnc(N5CCN(C6CCOC6)CC5)c4)c3O)cc2Cl)c1=O` (stereo not shown) [Example 618, 1-(3-chloro-5′-fluoro-2′-hydroxy-3′-(2-(4-(tetrahydrofuran-3-yl)piperazin-1-yl)pyridin-4-yl)-[1,1′-biphenyl]-4-yl)-3-methyl-1H-imidazol-2(3H)-one] showed a GI50 in experiment [1] of 30 to 300 nM. In addition, the pIC50 in experiment [2] is 9.00 to 11.00.

In turn, `Cn1ccn(-c2ccc(-c3cc(F)cc(-c4ccnc(N5CCN(C6CCC6)CC5)c4)c3O)cc2Cl)c1=O` [Example 619, 1-(3-chloro-3′-(2-(4-cyclobutylpiperazin-l-yl)pyridin-4-yl)-5′-fluoro-2′-hydroxy-[1,1′-biphenyl]-4-yl)-3-methyl-1H-imidazol-2(3H)-one] had a 50% growth inhibitory concentration (GI50) in experiment [1] of 0.3 to 30 nM. For the same molecule, the negative-log IC50 (pIC50) in experiment [2] is 9.00 to 11.00.

As for `Cn1ccn(-c2ccc(-c3cc(F)cc(-c4ccnc(N5CCN(CCCN)CC5)c4)c3O)cc2Cl)c1=O` [Example 620, 1-(3′-(2-(4-(3-aminopropyl)piperazin-1-yl)pyridin-4-yl)-3-chloro-5′-fluoro-2′-hydroxy-[1,1′-biphenyl]-4-yl)-3-methyl-1H-imidazol-2(3H)-one], the 50% growth inhibitory concentration (GI50) in experiment [1] fell in the range of 30 to 300 nM. For the same molecule, the pIC50 in experiment [2] is 9.00 to 11.00.

As for `Cn1ccn(-c2ccc(-c3cc(F)cc(-c4ccnc(N5CCN(C[C@H](O)CO)CC5)c4)c3O)cc2Cl)c1=O` [Example 621, (S)-1-(3-chloro-3′-(2-(4-(2,3-dihydroxypropyl)piperazin-1-yl)pyridin-4-yl)-5′-fluoro-2′-hydroxy-[1,1′-biphenyl]-4-yl)-3-methyl-1H-imidazol-2(3H)-one], in experiment [1], the GI50 was 0.3 to 30 nM. For the same molecule, the negative-log IC50 (pIC50) in experiment [2] is 9.00 to 11.00.

`Cn1ccn(-c2ccc(-c3cc(F)cc(-c4ccnc(N5CCC[C@@H](O)C5)c4)c3O)cc2Cl)c1=O` [Example 622, (R)-1-(3-chloro-5′-fluoro-2′-hydroxy-3′-(2-(3-hydroxypiperidin-1-yl)pyridin-4-yl)-[1,1′-biphenyl]-4-yl)-3-methyl-1H-imidazol-2(3H)-one] returned a concentration for 50% growth inhibition (GI50) in experiment [1] of 30 to 300 nM. Also, in experiment [2], the negative-log IC50 (pIC50) was 8.00 to 9.00.

`Cn1ccn(-c2ccc(-c3cc(F)cc(-c4ccnc(N5CCCNCC5)c4)c3O)cc2Cl)c1=O` [Example 623, 1-(3′-(2-(1,4-diazepan-1-yl)pyridin-4-yl)-3-chloro-5′-fluoro-2′-hydroxy-[1,1′-biphenyl]-4-yl)-3-methyl-1H-imidazol-2(3H)-one] yielded a GI50 in experiment [1] of 0.3 to 30 nM. In addition, in experiment [2], the negative-log IC50 (pIC50) is 9.00 to 11.00.

`Cn1ccn(-c2ccc(-c3cc(F)cc(-c4ccnc(N5CCN6CCCCC6C5)c4)c3O)cc2Cl)c1=O` (stereo not shown) [Example 624, 1-(3-chloro-5′-fluoro-3′-(2-(hexahydro-1H-pyrido[1,2-a]pyrazin-2(6H)-yl)pyridin-4-yl)-2′-hydroxy-[1,1′-biphenyl]-4-yl)-3-methyl-1H-imidazol-2(3H)-one] returned a GI50 in experiment [1] of 30 to 300 nM. Also, the negative logarithm of the IC50 (pIC50) in experiment [2] is 9.00 to 11.00.

Molecule `Cn1ccn(-c2ccc(-c3cc(F)cc(-c4ccnc(N5CCN6CCCC6C5)c4)c3O)cc2Cl)c1=O` (stereo not shown) [Example 625, 1-(3-chloro-5′-fluoro-3′-(2-(hexahydropyrrolo[1,2-a]pyrazin-2(1H)-yl)pyridin-4-yl)-2′-hydroxy-[1,1′-biphenyl]-4-yl)-3-methyl-1H-imrdazol-2(3H)-one] yielded a concentration for 50% growth inhibition (GI50) in experiment [1] of 0.3 to 30 nM. In addition, the negative-log IC50 (pIC50) in experiment [2] was 9.00 to 11.00.

`Cn1ccn(-c2ccc(-c3cc(F)cc(-c4ccnc(N5CC[C@H](O)C5)c4)c3O)cc2Cl)c1=O` [Example 626, (S)-1-(3-chloro-5′-fluoro-2′-hydroxy-3′-(2-(3-hydroxypyrrolidin-1-yl)pyridin-4-yl)-[1,1′-biphenyl]-4-yl)-3-methyl-1H-imidazol-2(3H)-one] gave a GI50 in experiment [1] of 30 to 300 nM. In addition, the negative-log IC50 (pIC50) in experiment [2] is 9.00 to 11.00.

`Cn1ccn(-c2ccc(-c3cc(F)cc(-c4ccnc(N5CC[C@@H](O)C5)c4)c3O)cc2Cl)c1=O` [Example 627, (R)-1-(3-chloro-5′-fluoro-2′-hydroxy-3′-(2-(3-hydroxypyrrolidin-1-yl)pyridin-4-yl)-[1,1′-biphenyl]-4-yl)-3-methyl-1H-imidazol-2(3H)-one] returned a 50% growth inhibitory concentration (GI50) in experiment [1] of 30 to 300 nM. Moreover, the negative logarithm of the IC50 (pIC50) in experiment [2] is 9.00 to 11.00.

For `Cn1ccn(-c2ccc(-c3cc(F)cc(-c4ccnc(N5CCC[C@H](O)C5)c4)c3O)cc2Cl)c1=O` [Example 628, (S)-1-(3-chloro-5′-fluoro-2′-hydroxy-3′-(2-(3-hydroxypiperidin-1-yl)pyridin-4-yl)-[1,1′-biphenyl]-4-yl)-3-methyl-1H-imidazol-2(3H)-one], in experiment [1], the GI50 was 30 to 300 nM. In experiment [2], the negative-log IC50 (pIC50) is 9.00 to 11.00.

Turning to `Cn1ccn(-c2ccc(-c3cc(F)cc(-c4ccnc(N5CCN(Cc6ccccc6)CC5)c4)c3O)cc2Cl)c1=O` [Example 629, 1-(3′-(2-(4-benzylpiperazin-1-yl)pyridin-4-yl)-3-chloro-5′-fluoro-2′-hydroxy-[1,1′-biphenyl]-4-yl)-3-methyl-1H-imidazol-2(3H)-one], in experiment [1], the GI50 is 30 to 300 nM. For the same molecule, the pIC50 in experiment [2] was 9.00 to 11.00.
